From patent US11111317B2, “Cordyceps militaris medium polysaccharide, method for separating and purifying same, and use thereof” (SOUTH CHINA NORMAL UNIVERSITY, priority 2018, dated 2021)

Tested on: hyperuricemia model mice
Assay: Uric acid lowering ability in hyperuricemia model mice (xanthine + oteracil potassium)
Assay type: in vivo
Settings: positive group 50 mg/kg by gavage, seven days, mouse serum
Description: Sixty male mice are randomly divided into six groups after one week's feeding, with 10 mice in each group, including a blank group, a model group, a high P1 dose group (400 mg/kg), a middle P1 dose group (200 mg/kg), a low P1 dose group (100 mg/kg) and a positive drug (50 mg/kg) control group. Every morning, the model group, the positive control group and the high, middle and low P1 dose groups are administered with 600 mg/kg of xanthine (ig) by gavage+100 mg/kg of oteracil potassium (ip) by intraperitoneal injection, fasting but water available for one hour before the model is made, and the blank group is administered with the same dose of normal saline. In the afternoon, the high, middle and low P1 dose groups are administered with the polysaccharide suspension by gavage; the positive control group is administered with 50 mg/kg of allopurinol suspension by gavage; the model group and the blank group are administered with the same volume of normal saline by gavage for seven consecutive days.
On the seventh day, 1 hour after administration in the afternoon, the mice are weighed and decapitated for blood collection. The blood is centrifuged at 3000 r/min for 10 min after being placed at room temperature for 40 min, and the upper layer of the serum is pipetted. Serum uric acid (UA), serum creatinine (CREA) and serum urea nitrogen (BUN) values are measured by kits to investigate the effects of the polysaccharide P1 on UA, CREA and BUN, as well as renal functions in the hyperuricemia model mice.

SMILES: Oc1ncnc2[nH]ncc12 [Positive, allopurinol]
- BUN (serum urea nitrogen): 6.99 ± 1.10 mmol/L
- CREA (serum creatinine): 71.69 ± 8.43 µmol/L
- UA (serum uric acid): 108.83 ± 6.53 µmol/L
